Values of other authors in patent US20110086355A1, “BRCA1 mRNA EXPRESSION LEVELS PREDICT SURVIVAL IN BREAST CANCER PATIENTS TREATED WITH NEOADJUVANT CHEMOTHERAPY” (PANGAEA BIOTECH, S.A., priority 2008, published 2011).

Assays:
[1] = tested on: HCC1937 breast cancer cell line; conditions: wild-type BRCA1 reconstituted vs BRCA1-negative HCC1937
[2] = tested on: SKOV-3 human ovarian cancer cell line
breast cancer cell line = conditions: BRCA1 mRNA determined by RT-QPCR
[3] = tested on: Mouse models carrying conditional disruption of BRCA1

SMILES | change of sensitivity after decreased BRCA1 mRNA expression (breast cancer cell line) | sensitivity of BRCA1-disrupted mouse models [3] | further results
N.N.[Cl][Pt][Cl] [cisplatin] | greater sensitivity | – | increase in resistance [1]: 20 fold; resistance after upregulation of BRCA1 expression [2]: increased cisplatin resistance
COc1cccc2c1C(=O)c1c(O)c3c(c(O)c1C2=O)C[C@@](O)(C(=O)CO)C[C@@H]3O[C@H]1C[C@H](N)[C@H](O)[C@H](C)O1 [doxorubicin] | – | highly sensitive | –
COc1cc([C@@H]2c3cc4c(cc3[C@@H](O[C@@H]3O[C@@H]5CO[C@@H](C)O[C@H]5[C@H](O)[C@H]3O)[C@H]3COC(=O)[C@H]23)OCO4)cc(OC)c1O [etoposide] | greater sensitivity | – | –
CC(=O)O[C@H]1C(=O)[C@@]2(C)[C@H]([C@H](OC(=O)c3ccccc3)[C@]3(O)C[C@H](OC(=O)[C@H](O)[C@@H](NC(=O)c4ccccc4)c4ccccc4)C(C)=C1C3(C)C)[C@]1(OC(C)=O)CO[C@@H]1C[C@@H]2O [paclitaxel] | greater resistance | – | –
CC/C(=C(\c1ccccc1)c1ccc(OCCN(C)C)cc1)c1ccccc1 [tamoxifen] | – | resistant | –
CC[C@]1(O)C[C@H]2CN(CCc3c([nH]c4ccccc34)[C@@](C(=O)OC)(c3cc4c(cc3OC)N(C=O)[C@H]3[C@@](O)(C(=O)OC)[C@H](OC(C)=O)[C@]5(CC)C=CCN6CC[C@]43[C@@H]65)C2)C1 [vincristine] | greater resistance | – | –
